Species on record: Rattus norvegicus
Type: toxicity, organism-based, Sprague-Dawley
Conditions: in vivo, po, route oral GAVAGE, […]
[1] = 100 mg/kg, 24 h, tissue Blood, dose level M1, time 1 day
[2] = 100 mg/kg, 24 h, tissue Plasma, dose level M1, time 1 day
[3] = 860 mg/kg, 6 h, tissue Blood, dose level High, time 0.25 day
[4] = 860 mg/kg, 6 h, tissue Plasma, dose level High, time 0.25 day
[5] = 860 mg/kg, 24 h, tissue Blood, dose level High, time 1 day
[6] = 860 mg/kg, 24 h, tissue Plasma, dose level High, time 1 day

Description: DrugMatrix - Regimen: Single

Q: What does the source list for `CC(C)OC(=O)C(C)(C)Oc1ccc(C(=O)c2ccc(Cl)cc2)cc1` [FENOFIBRATE]?
A: ABSOLUTE LYMPHOCYTE [1]: 12569.67 CELLS/uL; ABSOLUTE MONOCYTE [1]: 401.83 CELLS/uL; ABSOLUTE SEGMENTED NEUTROPHIL [1]: 920.33 CELLS/uL; BASOPHIL [1]: 0%; EOSINOPHIL [1]: 0.17%; ERYTHROCYTE COUNT [1]: 4.96 x10E6/uL; HEMATOCRIT [1]: 32.78%; HEMOGLOBIN [1]: 13.08 G/DL; LYMPHOCYTE [1]: 90.5%; MEAN CORPUSCULAR HEMOGLOBIN [1]: 26.38 pg; MEAN CORPUSCULAR HEMOGLOBIN CONCENTRATION [1]: 39.95 G/DL; MEAN CORPUSCULAR VOLUME [1]: 66.03 fL; NEUTROPHIL [1]: 6.67%; NUCLEATED RED BLOOD CELLS [1]: 0.33 /100WBC; ALANINE AMINOTRANSFERASE [2]: 74.83 u/L; ALBUMIN [2]: 4.45 G/DL; ALKALINE PHOSPHATASE [2]: 321.17 u/L; ASPARTATE AMINOTRANSFERASE [2]: 86.17 u/L; BLOOD UREA NITROGEN [2]: 13 mg/dL; CARBON DIOXIDE [2]: 30.83 mmol/L; CHOLESTEROL [2]: 42.83 mg/dL; CREATINE PHOSPHOKINASE [2]: 282.83 u/L; CREATININE [2]: 0.19 mg/dL; GLUCOSE [2]: 147.17 mg/dL; LIPASE [2]: 9.17 u/L; TOTAL BILIRUBIN [2]: 0.15 mg/dL; TOTAL PROTEIN [2]: 5.55 G/DL; ABSOLUTE EOSINOPHIL [3]: 0 CELLS/uL; ABSOLUTE LYMPHOCYTE [3]: 9866.33 CELLS/uL; ABSOLUTE MONOCYTE [3]: 201 CELLS/uL; ABSOLUTE SEGMENTED NEUTROPHIL [3]: 1482.67 CELLS/uL; BASOPHIL [3]: 0%; EOSINOPHIL [3]: 0%; ERYTHROCYTE COUNT [3]: 5.53 x10E6/uL; HEMATOCRIT [3]: 35.82%; HEMOGLOBIN [3]: 14.02 G/DL; LYMPHOCYTE [3]: 85%; MEAN CORPUSCULAR HEMOGLOBIN CONCENTRATION [3]: 39.15 G/DL; MEAN CORPUSCULAR VOLUME [3]: 64.97 fL; NEUTROPHIL [3]: 13.17%; NUCLEATED RED BLOOD CELLS [3]: 0 /100WBC; ALANINE AMINOTRANSFERASE [4]: 53.5 u/L; ALBUMIN [4]: 4.48 G/DL; ALKALINE PHOSPHATASE [4]: 282.5 u/L; ASPARTATE AMINOTRANSFERASE [4]: 93.33 u/L; BLOOD UREA NITROGEN [4]: 9 mg/dL; CARBON DIOXIDE [4]: 26 mmol/L; CHOLESTEROL [4]: 64 mg/dL; CREATINE PHOSPHOKINASE [4]: 406.33 u/L; CREATININE [4]: 0.16 mg/dL; LACTATE DEHYDROGENASE [4]: 198.83 u/L; TOTAL BILIRUBIN [4]: 0.2 mg/dL; TOTAL PROTEIN [4]: 6.02 G/DL; ABSOLUTE EOSINOPHIL [5]: 43 CELLS/uL; ABSOLUTE LYMPHOCYTE [5]: 12968.67 CELLS/uL; ABSOLUTE MONOCYTE [5]: 388.33 CELLS/uL; ABSOLUTE SEGMENTED NEUTROPHIL [5]: 1900 CELLS/uL; BASOPHIL [5]: 0%; EOSINOPHIL [5]: 0.33%; ERYTHROCYTE COUNT [5]: 5.77 x10E6/uL; HEMATOCRIT [5]: 35.63%; HEMOGLOBIN [5]: 14.08 G/DL; LYMPHOCYTE [5]: 85.17%; MEAN CORPUSCULAR HEMOGLOBIN CONCENTRATION [5]: 39.53 G/DL; MEAN CORPUSCULAR VOLUME [5]: 61.83 fL; NEUTROPHIL [5]: 12%; NUCLEATED RED BLOOD CELLS [5]: 0 /100WBC; ALANINE AMINOTRANSFERASE [6]: 115.33 u/L; ALBUMIN [6]: 4.42 G/DL; ALKALINE PHOSPHATASE [6]: 359 u/L; ASPARTATE AMINOTRANSFERASE [6]: 123.33 u/L; BLOOD UREA NITROGEN [6]: 10.33 mg/dL; CARBON DIOXIDE [6]: 27.83 mmol/L; CHOLESTEROL [6]: 51.5 mg/dL; CREATINE PHOSPHOKINASE [6]: 497 u/L; CREATININE [6]: 0.24 mg/dL; GLUCOSE [6]: 134.17 mg/dL; LACTATE DEHYDROGENASE [6]: 204.83 u/L; LIPASE [6]: 9 u/L; POTASSIUM [6]: 5.95 MEQ/L; TOTAL BILIRUBIN [6]: 0.22 mg/dL; TOTAL PROTEIN [6]: 5.72 G/DL
